# Tests used:
# HIS-TGFβR1 T204D = molecular target: T1, HIS-TGFβR1 T204D (Homo sapiens, UniProt P36897, T204D); experiment: HTRF probe-displacement assay, HIS-TGFβR1 T204D; type: binding; conditions: read-out: TGFβR1 (μM) IC50
# T1 sequence (P36897 34-503 T204D): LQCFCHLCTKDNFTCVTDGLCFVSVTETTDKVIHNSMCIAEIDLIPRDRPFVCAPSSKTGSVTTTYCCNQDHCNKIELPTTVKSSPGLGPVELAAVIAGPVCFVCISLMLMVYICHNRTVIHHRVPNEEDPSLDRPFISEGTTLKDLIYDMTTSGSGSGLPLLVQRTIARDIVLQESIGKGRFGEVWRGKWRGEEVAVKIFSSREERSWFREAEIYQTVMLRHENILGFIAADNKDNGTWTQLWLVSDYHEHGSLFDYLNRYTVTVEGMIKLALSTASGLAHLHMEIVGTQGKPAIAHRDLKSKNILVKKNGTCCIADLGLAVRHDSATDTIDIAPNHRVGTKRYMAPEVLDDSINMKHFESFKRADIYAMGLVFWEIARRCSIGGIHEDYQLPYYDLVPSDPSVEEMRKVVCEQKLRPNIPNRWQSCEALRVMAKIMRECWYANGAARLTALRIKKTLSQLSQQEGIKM
# HIS-TGFβR2 WT = HIS-TGFβR2 WT (Homo sapiens, UniProt P37173); experiment: HTRF probe-displacement assay, HIS-TGFβR2 WT; type: binding
# Chain of HIS-TGFβR2 WT (P37173 23-567): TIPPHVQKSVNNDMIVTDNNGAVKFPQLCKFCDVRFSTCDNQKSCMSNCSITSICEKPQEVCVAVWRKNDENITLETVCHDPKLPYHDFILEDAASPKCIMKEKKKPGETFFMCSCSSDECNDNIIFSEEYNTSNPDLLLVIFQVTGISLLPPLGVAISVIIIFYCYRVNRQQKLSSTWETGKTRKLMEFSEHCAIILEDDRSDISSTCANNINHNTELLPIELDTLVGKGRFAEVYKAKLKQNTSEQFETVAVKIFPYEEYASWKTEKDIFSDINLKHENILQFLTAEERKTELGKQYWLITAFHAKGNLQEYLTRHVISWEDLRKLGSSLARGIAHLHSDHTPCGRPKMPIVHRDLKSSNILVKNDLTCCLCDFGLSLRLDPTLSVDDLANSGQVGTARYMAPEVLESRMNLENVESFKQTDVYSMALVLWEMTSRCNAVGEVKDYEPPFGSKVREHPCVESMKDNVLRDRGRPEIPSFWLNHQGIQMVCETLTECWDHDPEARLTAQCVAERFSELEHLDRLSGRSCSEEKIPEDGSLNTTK
Compound,IC50 (HIS-TGFβR1 T204D) [µM],IC50 (HIS-TGFβR2 WT) [µM]
"CCC(OC(N)=O)c1ccnc2c(-c3ccc(OC)nc3)c(-c3ccnc(NC(C)=O)c3)[nH]c12 (stereo not drawn) [Example 302, 1-(2-(2-Acetamidopyridin-4-yl)-3-(6-methoxypyridin-3-yl)-1H-pyrrolo[3,2-b]pyridin-7-yl)propyl carbamate]",0.001,0.723
"CCOc1cnc2c(-c3ccc(OC)cn3)c(-c3ccnc(NC(C)=O)c3)[nH]c2c1 [Example 96, N-(4-(6-Ethoxy-3-(5-methoxypyridin-2-yl)-1H-pyrrolo[3,2-b]pyridin-2-yl)pyridin-2-yl)acetamide]",0.001,> 15
"CC(=O)N1CCN(CC(=O)Nc2cc(-c3[nH]c4cc(Cl)cnc4c3-c3ccc(F)cn3)ccn2)CC1 [Example 248, 2-(4-Acetylpiperazin-1-yl)-N-(4-(6-chloro-3-(5-fluoropyridin-2-yl)-1H-pyrrolo[3,2-b]pyridin-2-yl)pyridin-2-yl)acetamide]",0.002,14.5
"CC(=O)Nc1cc(-c2[nH]c3cc(F)cnc3c2-c2cccc(Cl)n2)ccn1 [Example 38, N-{4-[3-(6-Chloropyridin-2-yl)-6-fluoro-1H-pyrrolo[3,2-b]pyridin-2-yl]pyridin-2-yl}acetamide]",0.002,0.11
"CC(=O)Nc1cc(-c2[nH]c3c(C(C)C)ccnc3c2-c2cccc(C(F)F)n2)ccn1 [Example 133, N-(4-{3-[6-(Difluoromethyl)pyridin-2-yl]-7-(propan-2-yl)-1H-pyrrolo[3,2-b]pyridin-2-yl}pyridin-2-yl)acetamide]",0.001,> 15
"CC(=O)Nc1cc(-c2[nH]c3cc(Cl)cnc3c2-c2cccc(C(C)C)n2)ccn1 [Example 260, N-(4-(6-Chloro-3-(6-isopropylpyridin-2-yl)-1H-pyrrolo[3,2-b]pyridin-2-yl)pyridin-2-yl)acetamide]",0.049,> 15
"CNC(=O)c1ccnc2c(-c3ccc(OC)nc3)c(-c3ccnc(NC(C)=O)c3)[nH]c12 [Example 57, 2-(2-Acetamidopyridin-4-yl)-3-(6-methoxypyridin-3-yl)-N-methyl-1H-pyrrolo[3,2-b]pyridine-7-carboxamide]",0.019,0.11
"CC(=O)Nc1cc(-c2[nH]c3c(C)ccnc3c2-c2cccc(C(F)F)n2)ccn1 [Example 216, N-(4-(3-(6-(Difluoromethyl)pyridin-2-yl)-7-methyl-1H-pyrrolo[3,2-b]pyridin-2-yl)pyridin-2-yl)acetamide]",0.0013,3.77
"COc1ccc(-c2c(-c3ccnc(NC(C)=O)c3)[nH]c3cc(Cl)cnc23)nc1Cl [Example 180, N-(4-(6-Chloro-3-(6-chloro-5-methoxypyridin-2-yl)-1H-pyrrolo[3,2-b]pyridin-2-yl)pyridin-2-yl)acetamide]",0.0274,> 15
"COc1cnc2c(-c3nc(C(F)F)cs3)c(-c3ccnc(NC(C)=O)c3)[nH]c2c1 [Example 227, N-(4-(3-(4-(Difluoromethyl)thiazol-2-yl)-6-methoxy-1H-pyrrolo[3,2-b]pyridin-2-yl)pyridin-2-yl)acetamide]",0.0006,0.725
"COc1cnc2c(-c3cccc(C)n3)c(-c3ccnc(NC(C)=O)c3)[nH]c2c1 [Example 283, N-(4-(6-Methoxy-3-(6-methylpyridin-2-yl)-1H-pyrrolo[3,2-b]pyridin-2-yl)pyridin-2-yl)acetamide]",0.001,1.12
"O=C(CNCCN1CCOCC1)Nc1cc(-c2[nH]c3cc(Cl)cnc3c2-c2ccc(F)cn2)ccn1 [Example 241, N-{4-[6-Chloro-3-(5-fluoropyridin-2-yl)-1H-pyrrolo[3,2-b]pyridin-2-yl]pyridin-2-yl}-2-{[2-(morpholin-4-yl)ethyl]amino}acetamide]",0.004,3.67
"COc1ccc(-c2c(-c3ccnc(NC(C)=O)c3)[nH]c3c(CN)ccnc23)cn1 [Example 81, N-(4-(7-(Aminomethyl)-3-(6-methoxypyridin-3-yl)-1H-pyrrolo[3,2-b]pyridin-2-yl)pyridin-2-yl)acetamide]",0.014,0.26
C[C@H](O)C(=O)Nc1cc(-c2[nH]c3cc(Cl)cnc3c2-c2ccc(F)cn2)ccn1 [Example 73],0.019,15.5

# More lines, now with the values ahead:
IC50 (HIS-TGFβR1 T204D) [µM],IC50 (HIS-TGFβR2 WT) [µM],Compound
0.003,0.407,"CC(=O)Nc1cc(-c2[nH]c3cc(F)cnc3c2-c2ncc(C)s2)ccn1 [Example 183, N-(4-(6-Fluoro-3-(5-methylthiazol-2-yl)-1H-pyrrolo[3,2-b]pyridin-2-yl)pyridin-2-yl)acetamide]"
0.017,9.23,"COc1ccc(-c2c(-c3ccnc(NC(C)=O)c3)[nH]c3c(C(=O)NC(CO)CO)cc(Cl)nc23)cn1 [Example 58, 5-Chloro-N-(1,3-dihydroxypropan-2-yl)-2-(2-acetamidopyridin-4-yl)-3-(6-methoxypyridin-3-yl)-1H-pyrrolo[3,2-b]pyridine-7-carboxamide]"
> 15,> 15,"COc1ccc(-c2c(-c3ccnc(NC(C)=O)c3)[nH]c3c(C)ccnc23)nc1 [Example 217, N-(4-(3-(5-Methoxypyridin-2-yl)-7-methyl-1H-pyrrolo[3,2-b]pyridin-2-yl)pyridin-2-yl)acetamide]"
0.32,6.65,"CC(=O)Nc1cc(-c2[nH]c3c(C(=O)NC(CO)CO)cc(Cl)nc3c2-c2cccnc2)ccn1 [Example 60, 5-Chloro-N-(1,3-dihydroxypropan-2-yl)-2-(2-acetamidopyridin-4-yl)-3-(pyridin-3-yl)-1H-pyrrolo[3,2-b]pyridine-7-carboxamide]"
0.002,0.267,"CC(=O)Nc1cc(-c2[nH]c3c(C(C)O)ccnc3c2-c2cccc(F)n2)ccn1 (stereo not drawn) [Example 262, N-(4-(3-(6-Fluoropyridin-2-yl)-7-(1-hydroxyethyl)-1H-pyrrolo[3,2-b]pyridin-2-yl)pyridin-2-yl)acetamide]"
0.067,1.04,"COc1ccc(-c2c(-c3ccnc(NC(C)=O)c3)[nH]c3c(OC)ccnc23)cn1 [Example 269, N-(4-(7-Methoxy-3-(6-methoxypyridin-3-yl)-1H-pyrrolo[3,2-b]pyridin-2-yl)pyridin-2-yl)acetamide]"
0.002,> 15,"COc1ccc(-c2c(-c3ccnc(NC(C)=O)c3)[nH]c3cc(Br)cnc23)nc1 [Example 83, N-{4-[6-Bromo-3-(5-methoxypyridin-2-yl)-1H-pyrrolo[3,2-b]pyridin-2-yl]pyridin-2-yl}acetamide]"
0.001,9.92,"CN1CCN(CC(=O)Nc2cc(-c3[nH]c4cc(Cl)cnc4c3-c3ccc(F)cn3)ccn2)CC1 [Example 88, N-{4-[6-Chloro-3-(5-fluoropyridin-2-yl)-1H-pyrrolo[3,2-b]pyridin-2-yl]pyridin-2-yl}-2-(4-methylpiperazin-1-yl)acetamide]"
0.003,0.11,"CC(=O)Nc1cc(-c2[nH]c3cc(Cl)cnc3c2-c2cccc(F)n2)ccn1 [Example 45, N-{4-[6-Chloro-3-(6-fluoropyridin-2-yl)-1H-pyrrolo[3,2-b]pyridin-2-yl]pyridin-2-yl}acetamide]"
0.003,6.57,"COc1cnc2c(-c3ccc(Cl)cn3)c(-c3ccnc(NC(C)=O)c3)[nH]c2c1 [Example 50, N-{4-[3-(5-Chloropyridin-2-yl)-6-methoxy-1H-pyrrolo[3,2-b]pyridin-2-yl]pyridin-2-yl}acetamide]"
0.004,8.66,"CC(=O)Nc1cc(-c2[nH]c3c(C4CCCCO4)ccnc3c2-c2cccc(C(F)F)n2)ccn1 (stereo not drawn) [Example 134, N-(4-{3-[6-(Difluoromethyl)pyridin-2-yl]-7-(oxan-2-yl)-1H-pyrrolo[3,2-b]pyridin-2-yl}pyridin-2-yl)acetamide]"
0.0163,> 15,"COc1ccc(-c2c(-c3ccnc(NC(C)=O)c3)[nH]c3cc(N4CCC(OC)CC4)cnc23)nc1 [Example 158, N-(4-(6-(4-Methoxypiperidin-1-yl)-3-(5-methoxypyridin-2-yl)-1H-pyrrolo[3,2-b]pyridin-2-yl)pyridin-2-yl)acetamide]"
0.0024,0.037,"COc1ccc(-c2c(-c3ccnc(NC(C)=O)c3)[nH]c3c(C(C)O)ccnc23)cn1 (stereo not drawn) [Example 230, N-(4-(7-(1-Hydroxyethyl)-3-(6-methoxypyridin-3-yl)-1H-pyrrolo[3,2-b]pyridin-2-yl)pyridin-2-yl)acetamide]"
0.001,1.66,"CCN1CCN(CC(=O)Nc2cc(-c3[nH]c4cc(Cl)cnc4c3-c3ccc(OC)nc3)ccn2)CC1 [Example 291, N-(4-(6-chloro-3-(6-methoxypyridin-3-yl)-1H-pyrrolo[3,2-b]pyridin-2-yl)pyridin-2-yl)-2-(4-ethylpiperazin-1-yl)acetamide]"
< 0.001,> 15,"COc1cnc2c(-c3cccc(C(F)F)n3)c(-c3ccnc(NC(=O)CN4CCN(CCO)CC4)c3)[nH]c2c1 [Example 123, N-(4-{3-[6-(Difluoromethyl)pyridin-2-yl]-6-methoxy-1H-pyrrolo[3,2-b]pyridin-2-yl}pyridin-2-yl)-2-[4-(2-hydroxyethyl)piperazin-1-yl]acetamide]"
0.0013,> 15,"COc1ccc(-c2c(-c3ccnc(NC(C)=O)c3)[nH]c3cc(NC(C)=O)cnc23)nc1 [Example 157, N-(4-(6-Acetamido-3-(5-methoxypyridin-2-yl)-1H-pyrrolo[3,2-b]pyridin-2-yl)pyridin-2-yl)acetamide]"
